The text below walks through data of patent US20150105252A1, “SUBSTITUTED PYRAZOLES AS HERBICIDES” (E I DU PONT DE NEMOURS AND COMPANY, priority 2013, published 2015).

Each structure is given as a SMILES string.

One assay concerns galium. The assay can be described thus: Test A postemergence. Format: in vivo, Galium aparine. In outline: (§1)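 Pre- and postemergence greenhouse test; loam+sand; cpd in non-phytotox. solvent/surfactant; post at 1–2 leaf, 2–10 cm; visual score ~10 d, 0 = none, 100 = complete control.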
Another assay deals with common ragweed. The assay is described as follows: Test A preemergence. The class given is in vivo, Ambrosia elation. An outline of the steps:
as §1

Another assay concerns Italian ryegrass. The assay can be described thus: Test A preemergence. Format: in vivo, Lolium multiflorum. An outline of the steps:
as §1

Where [1] appears, read: Postemergence, 500 g ai/ha, 0 to 100 scale (0 no effect, 100 complete control).
The mark [2] stands for this setting: postemergence, 125 g ai/ha, about 10 days, visual rating on 0 to 100 scale (0 no effect, 100 complete control).
Setting [3] is: 125 g ai/ha, visual injury, 0 to 100 scale, approx. 10 days.
Setting [4] is: 500 g ai/ha, visual injury after approx. 10 days, 0 to 100 scale (0 no effect, 100 complete control).
[5] abbreviates: 125 g ai/ha, visual injury approx. 10 days after treatment.

Turning to `CCCc1cc(C(=O)NCC(F)(F)F)nn1Cc1ccnc(OC(F)F)c1` [Compound 127], the “Galium plant response rating” value in the assay on galium (setting [1]) and in the assay on galium (setting [2]) was 90 throughout. The results for the “Common Ragweed plant response rating” value in the assay with common ragweed (setting [3]) and with common ragweed (setting [4]) were 30 and 90, respectively. For the same compound, the “Italian Ryegrass plant response rating” value in the assay with Italian ryegrass (setting [3]) is recorded as 40; in the assay with Italian ryegrass (setting [4]) it was 90.

Consider `CCc1cc(C(=O)NOC(C)C)nn1Cc1ccnc(OC(F)F)c1` [Compound 126], for which the “Galium plant response rating” value in the assay on galium (setting [1]) and in the assay on galium (setting [2]) was 90 throughout. Also, the “Common Ragweed plant response rating” value in the assay with common ragweed (setting [3]) was found to be 90; in the assay with common ragweed (setting [4]) it was 100. The “Italian Ryegrass plant response rating” value is given as 90 in the assay with Italian ryegrass (setting [3]) and 100 in the assay on Italian ryegrass (setting [4]).

For `CCCNC(=O)c1cc(OCC)n(Cc2ccnc(OC(F)F)c2)n1` [Compound 136], the “Galium plant response rating” value is recorded as 100 with galium (setting [1]) and 90 in the assay with galium (setting [2]). The “Common Ragweed plant response rating” value came out at 70 in the assay with common ragweed (setting [3]) and 80 in the assay on common ragweed (setting [4]). In addition, the “Italian Ryegrass plant response rating” value with Italian ryegrass (setting [3]) was determined as 30; in the assay with Italian ryegrass (setting [4]), 100.

In the case of `CCOc1cc(C(=O)NCC(F)(F)F)nn1Cc1ccnc(OC(F)F)c1` [Compound 128], the “Galium plant response rating” value in the assay with galium (setting [1]) amounted to 100; in the assay with galium (setting [2]), 90. In addition, the “Common Ragweed plant response rating” value in the assay with common ragweed (setting [3]) amounted to 70; in the assay with common ragweed (setting [4]), 90. For the same compound, the entries for the “Italian Ryegrass plant response rating” value with Italian ryegrass (setting [3]) and in the assay with Italian ryegrass (setting [4]) were 30 and 100, respectively.

For `CCCc1cc(C(=O)NC2CC2)nn1Cc1ccnc(OC(F)F)c1` [Compound 205], the “Galium plant response rating” value with galium (Postemergence, 125 g ai/ha, 0 to 100 scale, 0 no effect, 100 complete control) was found to be 90; in the assay with galium (setting [1]), 90. Moreover, the “Common Ragweed plant response rating (0 to 100 scale)” value in the assay on common ragweed (setting [5]) amounted to 70. Besides, the “Common Ragweed plant response rating” value in the assay with common ragweed (setting [4]) is listed as 100. The “Italian Ryegrass plant response rating (0 to 100 scale)” value in the assay on Italian ryegrass (setting [5]) is reported as 50. Further, the “Italian Ryegrass plant response rating” value with Italian ryegrass (setting [4]) was determined as 100.
